Source: US11191746B2, “Composition for inhibiting a growth of cancer stem cells comprising ciclesonide” (JEJU NATIONAL UNIVERSITY INDUSTRY-ACADEMIC COOPERATION …, priority 2016, dated 2021)

Tests used:
Type in all cases: cell-based, human
[1] = tested on: A549 cell-derived tumorspheres; assay: Tumorsphere formation; conditions: A549 tumorspheres
Procedure: Human lung cancer cells, A549, were cultured under the same culture conditions as those for the breast cancer cells of Example 2-1. To establish primary tumorspheres, single cell-suspended A549 cells were inoculated into ultra-low attachment 6-well plates containing 2 ml of Cancer Stem Premium medium (ProMab Biotechnologies Inc, Richmond, Calif., USA) at a density of 5×10^4 cells/well. The cells were incubated in a 5% CO2 incubator at 37° C. for 10 days.
Lung cancer tumorspheres were counted in the same manner as in Example 3-1, and for the analysis of tumorsphere formation, tumorsphere formation efficiency (TFE, %) was determined by the following equation: TFE (%)=number of tumorspheres per well/total number of plated cells per well×100.

[2] = tested on: MCF-7 cell-derived mammospheres; assay: Mammosphere formation; conditions: MCF-7 mammospheres, 80 μM
Procedure: (§1) Human breast cancer cells, MCF-7, were obtained from American Type Culture Collection (ATCC; Manassas, Va., USA). MCF-7 cells and MDA-MB-231 cells were cultured in Dulbecco's Modified Essential Medium (DMEM; Hyclone, Logan, Utah, USA) containing 10% fetal bovine serum (FBS; Hyclone), 100 U/ml of penicillin, and 100 μg/ml of streptomycin (Hyclone). The MCF-7 cells were maintained in a humidified incubator containing 5% CO2 at 37° C. The cells were plated in 10 cm culture dishes at a density of 1×10^6 cells. To establish primary mammospheres, single cell-suspended MCF-7 cells were inoculated into ultra-low attachment 6-well plates containing 2 ml of complete MammoCult™ medium (StemCell Technologies, Vancouver, BC, Canada) at a density of 3.5 to 4×10^4 cells/well. The complete MammoCult™ medium was supplemented with 4 μg/ml of heparin, 0.48 μg/ml of hydrocortisone, 100 U/ml of penicillin, and 100 μg/ml of streptomycin. The cells were incubated in a 5% CO2 incubator at 37° C. for 7 days.
(§2) On day 10 of culture, cell culture plates were placed on a scanner (Epson Perfection V700 PHOTO, Epson Korea, Co, Seoul, Korea) to obtain 8-bit gray scale images of mammospheres. The images were acquired using a NICE software program downloaded from ftp://ftp.nist.gov/pub/physics/mlclarke/NICE at a low resolution of 300 dpi. For counting, a desired number of rows and columns (e.g., 2×3 for a 6-well plate) were selected to generate ROIs and after selecting the elliptical setting of the NICE program, the individual ROIs were defined by adjusting the movement and size of the provided ROI shapes. The background signals of the images were negated using a threshold algorithm, and the selected images were automatically counted. To analyze the formation of mammospheres, mammosphere formation efficiency (MFE, %) was determined by the following equation: MFE (%)=the number of mammospheres per well/a total number of plated cells per well×100.

[3] = tested on: MDA-MB-231 cell-derived mammospheres; assay: Mammosphere formation; conditions: MDA-MB-231 mammospheres, 80 μM
Procedure: as §1, §2

Row | Compound | lung cancer stem cell inhibitory activity ([1]; 5 μM and 10 μM) | growth of breast cancer stem cells [2] | growth of breast cancer stem cells [3] | lung cancer stem cell inhibitory activity ([1]; 80 μM)
1 | isobutyryl ciclesonide | exhibited a lung cancer stem cell inhibitory activity | – | – | –
2 | C[C@]12C=CC(=O)C=C1CC[C@@H]1[C@@H]2C(=O)C[C@@]2(C)[C@H]1CC[C@]2(O)C(=O)CO [prednisone] | – | unable to inhibit | unable to inhibit | did not exhibit a lung cancer stem cell inhibitory activity
